Results reported in ChEMBL document CHEMBL4665794, “Formicolides A and B, Antioxidative and Antiangiogenic 20-Membered Macrolides from a Wood Ant Gut Bacterium” (J Nat Prod, 2020).

Experiments:
[1] = test system: HUVEC; assay: Anti-angiogenesis activity in HUVEC assessed as inhibition of VEGF-induced tube formation incubated for 6 hrs by capillary tube formation assay; assay type: functional, cell-based; conditions: Homo sapiens
[2] = target: NAD(P)H dehydrogenase [quinone] 1 (Mus musculus) (UniProt Q64669); assay: Activation of quinone reductase in mouse Hepa1c1c7 cells at 20 uM incubated for 24 hrs by MTT based assay relative to control; assay type: cell-based; conditions: filed as activator
[3] = Cytotoxicity against mouse Hepa1c1c7 cells assessed as reduction in cell viability after 24 hrs by MTT assay; assay type: cell-based; conditions: hepa1c1c7, 24 h

Chain of NAD(P)H dehydrogenase [quinone] 1 (Mus musculus) (Q64669 whole entry): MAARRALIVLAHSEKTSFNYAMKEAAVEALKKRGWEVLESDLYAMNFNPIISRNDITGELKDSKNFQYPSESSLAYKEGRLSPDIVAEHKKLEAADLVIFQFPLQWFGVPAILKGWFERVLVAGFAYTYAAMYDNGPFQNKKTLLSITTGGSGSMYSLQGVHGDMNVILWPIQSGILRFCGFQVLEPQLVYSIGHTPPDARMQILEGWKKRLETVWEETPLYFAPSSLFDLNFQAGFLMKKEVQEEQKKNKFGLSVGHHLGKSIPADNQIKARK

Structure (SMILES)	IC50 [1]	fold change (FC) [2]	Activity [3]
CCN(CC)CCNC(=O)c1c(C)[nH]c(/C=C2\C(=O)Nc3ccc(F)cc32)c1C [SUNITINIB]	1.5 µM		
C/C=C\[C@@H](O)CC[C@@H](C)[C@@H](O)[C@H](C)[C@]1(C)C/C=C/C=C/[C@H](O)C(=O)/C(C)=C/C=C/C(C)=C/[C@@H](O)/C(C)=C/CC(=O)O1	13 µM	2.08	Non-Toxic
CCC[C@]1(O)C[C@H](O)[C@@H](C)[C@H]([C@H](C)[C@@H]2C/C=C/C=C/[C@H](O)C(=O)/C(C)=C/C=C/C(C)=C/[C@@H](O)/C(C)=C/CC(=O)O2)O1	20 µM	2.07	Non-Toxic
